PubChem BioAssay AID1963433 (Molecular Pharmacology Branch, DTP, NCI, 2024)
Each block holds one compound with its values, some of them ahead of it.

Tested on: 772245-204-R-J1-PDC complex spheroid growth
Assay: Anticancer human tumor 772245-204-R-J1-PDC patient-derived rhabdomyosarcoma cell line growth inhibition [Asc]
Details: for IC50: curve of first compound; for viability, T/C: stronger effect = lower value
Protocol: Multicellular complex tumor spheroid response to apoptosis pathway targeting inhibitors Alrizomadlin, Pelcitoclax, and Dasminapant in combination with a variety of drugs and investigational agents in selected tumor cell lines
The MDM2 inhibitor alrizomadlin, the Bcl-2/Bcl-xL inhibitor pelcitoclax, and the IAPs inhibitor dasminapant were evaluated both individually and in combination with standard of care and investigational anticancer small molecules within a complex spheroid model of solid tumors. . Complex spheroids include a stromal component modeled by human endothelial cells (HUVEC) and fibroblasts modeled by human mesenchymal stem cells (MSCs). The concentration ranges selected for each drug and investigational agent were based upon clinically achievable concentrations if the clinical Cmax of the agent was known.
Compounds. The drugs and investigational agents: alrizomadlin (APG-115; NSC831270), pelcitoclax (APG-1252; NSC835773), dasminapant (APG-1387;NSC834197), TAK-243 (NSC785004), copanlisib (NSC809693), olaparib (NSC753686), talazoparib (NSC767125), cobimetinib (NSC 768068), eltanexor (KPT-8602, NSC 794443), abemaciclib (NSC 768073), sotorasib (NSC818433), adagrasib (NSC 831453), MRTX-1133 (NSC 836407), Iadademestat (ORY1001, NSC 806812), and RMC-4630 (NSC839698), were obtained from the NCI Developmental Therapeutics Program Chemical Repository. The FDA-approved anticancer drug set is available from the Developmental Therapeutics Program at https://dtp.cancer.gov/organization/dscb/obtaining/available plates.htm. […] The stock solutions were prepared in dimethyl sulfoxide (DMSO, Sigma-Aldrich, St. Louis, MO, cat. D2650) at 800-fold the tested concentration and stored at -70 degrees C prior to their use. All drugs and investigational agents were tested over a range starting from a high concentration at or near the clinical Cmax and decreasing in half-log increments. If the clinical Cmax for an agent had not been determined, the highest concentration tested was 10 microM.
The patient-derived cancer (PDC) cell lines include five colon adenocarcinomas: 186277-243-T-J2-PDC, 616215-338-R-J1-PDC, 439559-082-T-J2-PDC, 463943-066-T-J2-PDC, and 519858-162-T-J1-PDC; three pancreatic carcinomas: 323965-272-R-J2-PDC, 521955-158-R6-J3-PDC, and 521955-158-R2-J5-PDC; two uterine sarcomas: 327498-152-R-J2-PDC and 993429-296-R-J1-PDC; two rhabdomyosarcomas: 755483-174-R-J1-PDC and 772245-204-R-J1-PDC; two soft tissue sarcomas: 126254-015-R-J1-PDC and 494315-158-R-J1-PDC; two malignant fibrous histiocytomas: 317291-083-R-J1-PDC and 596521-263-R-J1-PDC; two breast carcinomas: 171881-019-R-J1-PDC and 885512-296-R-J2-PDC; and one ovarian carcinoma: 6556581-035-R-J-PDC were obtained from the NCI PDMR, (https://pdmr.cancer.gov). The established cell lines HSSY-2 synovial sarcoma (RRID:CVCL 8719), SYO-1 synovial sarcoma (RRID:CVCL_7146), MPNST malignant peripheral neural sheath tumor were obtained from the Sloan Kettering Institute. The following established cell lines were purchased from the American Type Culture Collection (ATCC, Manassas, VA), Sor the received from the NCI repository:, PANC-1 pancreatic carcinoma (CRL-1469, RRID:CVCL_0480), OVCAR-5 ovarian carcinoma (RRID:CVCL_1628), OVCAR-8 ovarian carcinoma (RRID:CVCL_1629), , MCF-7 breast carcinoma (CRL-12584, RRID:CVCL_0031), MDA-MB-231 breast carcinoma (CRL-12532, RRID:CVCL_0062), NCI-H1876 small cell lung carcinoma (CRL-5902, RRID:CVCL_1503), NCI-H510A small cell lung carcinoma (HTB-184, RRID:CVCL_1565), NCI-H1417 (CRL-5869, RRID:CVCL_1469), and NCI-H196 small cell lung carcinoma (CRL-5823, RRID:CVCL_1509). Dr. Peter Houghton (Greehey Children's Cancer Research Institute, University of Texas Health Science Center, San Antonio, TX) provided Rh-18 rhabdomyosarcoma (RRID:CVCL_1659). Pooled donor human umbilical vein endothelial cells (HUVEC, Lonza, cat. CC-2519) and human mesenchymal stem cells (hMSC, Lonza, cat. PT-2501) were purchased from Lonza (Walkersville, MD).
Cell Culture. […]
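Also: compound exposure lasted seven days.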
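For viability, T/C in this document: 100% = DMSO vehicle control viability.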

IC50 (second compound 0.1 µM): 9710 nM | IC50 (second compound 0.316 µM): 2030 nM | IC50 (second compound 1 µM): 3740 nM | IC50 (second compound 3.16 µM): < 31.6 nM | IC50 (second compound 10 µM): 1030 nM
SMILES: C#Cc1c(F)ccc2cc(O)cc(-c3ncc4c(N5CC6CCC(C5)N6)nc(OCC56CCCN5CC(F)C6)nc4c3F)c12 (stereo not given) + Cc1c(S(C)(=O)=O)c(-c2cc(F)cc(N3CCN(c4ccc(NS(=O)(=O)c5ccc(NC(CCN6CCC(C(=O)OCCCP(=O)(O)O)CC6)CSc6ccccc6)c(S(=O)(=O)C(F)(F)F)c5)cc4)CC3)c2)c(-c2ccc(Cl)cc2)n1C(C)C
viability, T/C (second compound 0.1 µM, first compound 0.0316 µM): 72.8% | viability, T/C (second compound 0.1 µM, first compound 0.1 µM): 93.2% | viability, T/C (second compound 0.1 µM, first compound 0.316 µM): 85.6% | viability, T/C (second compound 0.1 µM, first compound 1 µM): 71.6% | viability, T/C (second compound 0.1 µM, first compound 3.16 µM): 72.7% | viability, T/C (second compound 0.1 µM, first compound 10 µM): 49% | viability, T/C (second compound 0.316 µM, first compound 0.0316 µM): 60.4% | viability, T/C (second compound 0.316 µM, first compound 0.1 µM): 66.2% | viability, T/C (second compound 0.316 µM, first compound 0.316 µM): 62.3% | viability, T/C (second compound 0.316 µM, first compound 1 µM): 56% | viability, T/C (second compound 0.316 µM, first compound 3.16 µM): 46.3% | viability, T/C (second compound 0.316 µM, first compound 10 µM): 38.2% | viability, T/C (second compound 1 µM, first compound 0.0316 µM): 49.8% | viability, T/C (second compound 1 µM, first compound 0.1 µM): 55.4% | viability, T/C (second compound 1 µM, first compound 0.316 µM): 51.5% | viability, T/C (second compound 1 µM, first compound 1 µM): 56.8% | viability, T/C (second compound 1 µM, first compound 3.16 µM): 54.1% | viability, T/C (second compound 1 µM, first compound 10 µM): 29.7% | viability, T/C (second compound 3.16 µM, first compound 0.0316 µM): 49.8% | viability, T/C (second compound 3.16 µM, first compound 0.1 µM): 46.7% | viability, T/C (second compound 3.16 µM, first compound 0.316 µM): 47.1% | viability, T/C (second compound 3.16 µM, first compound 1 µM): 37% | viability, T/C (second compound 3.16 µM, first compound 3.16 µM): 30.7% | viability, T/C (second compound 3.16 µM, first compound 10 µM): 13.8% | viability, T/C (second compound 10 µM, first compound 0.0316 µM): 44% | viability, T/C (second compound 10 µM, first compound 0.1 µM): 55.5% | viability, T/C (second compound 10 µM, first compound 0.316 µM): 44% | viability, T/C (second compound 10 µM, first compound 1 µM): 58.3% | viability, T/C (second compound 10 µM, first compound 3.16 µM): 34% | viability, T/C (second compound 10 µM, first compound 10 µM): 18.5%

IC50 (second compound 0.03 µM): > 1000 nM | IC50 (second compound 0.0949 µM): > 1000 nM | IC50 (second compound 0.3 µM): > 1000 nM | IC50 (second compound 0.949 µM): > 1000 nM | IC50 (second compound 3 µM): > 1000 nM
SMILES: CCN1CCN(Cc2ccc(Nc3ncc(F)c(-c4cc(F)c5nc(C)n(C(C)C)c5c4)n3)nc2)CC1 + CCN1C(C(=O)NC23CCC(C(=O)O)(CC2)CC3)C(c2cccc(Cl)c2F)C2(C(=O)Nc3cc(Cl)ccc32)C12CCCCC2
viability, T/C (second compound 0.03 µM, first compound 0.00316 µM): 100% | viability, T/C (second compound 0.03 µM, first compound 0.01 µM): 97.4% | viability, T/C (second compound 0.03 µM, first compound 0.0316 µM): 103% | viability, T/C (second compound 0.03 µM, first compound 0.1 µM): 110% | viability, T/C (second compound 0.03 µM, first compound 0.316 µM): 114% | viability, T/C (second compound 0.03 µM, first compound 1 µM): 116% | viability, T/C (second compound 0.0949 µM, first compound 0.00316 µM): 99.5% | viability, T/C (second compound 0.0949 µM, first compound 0.01 µM): 110% | viability, T/C (second compound 0.0949 µM, first compound 0.0316 µM): 101% | viability, T/C (second compound 0.0949 µM, first compound 0.1 µM): 111% | viability, T/C (second compound 0.0949 µM, first compound 0.316 µM): 114% | viability, T/C (second compound 0.0949 µM, first compound 1 µM): 116% | viability, T/C (second compound 0.3 µM, first compound 0.00316 µM): 106% | viability, T/C (second compound 0.3 µM, first compound 0.01 µM): 111% | viability, T/C (second compound 0.3 µM, first compound 0.0316 µM): 122% | viability, T/C (second compound 0.3 µM, first compound 0.1 µM): 103% | viability, T/C (second compound 0.3 µM, first compound 0.316 µM): 102% | viability, T/C (second compound 0.3 µM, first compound 1 µM): 131% | viability, T/C (second compound 0.949 µM, first compound 0.00316 µM): 94.3% | viability, T/C (second compound 0.949 µM, first compound 0.01 µM): 93.4% | viability, T/C (second compound 0.949 µM, first compound 0.0316 µM): 100% | viability, T/C (second compound 0.949 µM, first compound 0.1 µM): 102% | viability, T/C (second compound 0.949 µM, first compound 0.316 µM): 92.9% | viability, T/C (second compound 0.949 µM, first compound 1 µM): 96% | viability, T/C (second compound 3 µM, first compound 0.00316 µM): 77.9% | viability, T/C (second compound 3 µM, first compound 0.01 µM): 84.7% | viability, T/C (second compound 3 µM, first compound 0.0316 µM): 85.5% | viability, T/C (second compound 3 µM, first compound 0.1 µM): 89.9% | viability, T/C (second compound 3 µM, first compound 0.316 µM): 80.1% | viability, T/C (second compound 3 µM, first compound 1 µM): 121%
